Measurements published in patent US8748467B2, “Topical formulation” (Bayer Intellectual Property GmbH, priority 2007, dated 2014).

Key:
total thyroxine (tT4) = test: Total thyroxine (tT4) assays before and after each week's treatment (Example 1); format: in vivo; details: cats; twice daily for a week
Text: At least a fortnight was allowed between treatments.

[1] = in vivo
Method: They received standard oral carbimazole (Neomercazole, AFT Pharmaceuticals Ltd) tablets 5 mg administered twice daily for a week, followed by a test formulation of transdermal carbimazole (Test Formulation 1, Table 1, Example 2, below) 10 mg administered twice daily for a week, followed by Hoffman's (2002) transdermal formulation of carbimazole in poloxamer lecithin organogel (PLO), 10 mg administered twice daily for a week. At least a fortnight was allowed between treatments.

[2] = Hoffman et al, 2002; cited from earlier work

Row | plasma methimazole levels relative to the published therapeutic range [1] | Compound | tT4 concentrations over the seven days of the trial period (total thyroxine (tT4)) | published plasma levels with methimazole [2] [µg/mL]
1 | in the published therapeutic range | CCOC(=O)n1ccn(C)c1=S [carbimazole] | approximately halved | –
2 | – | Cn1cc[nH]c1=S [methimazole] | – | 0.51 ± 0.15
